The results in this text go back to article PMC4685510, “A Cell Biologist’s Field Guide to Aurora Kinase Inhibitors” (Frontiers in Oncology, 2015).

Molecules are shown by their SMILES.

Assay in all cases: biochemical
Common to all, as to assay type: biochemical

Experiment [1] deals with T1, 363 human kinases (including Aurora A/B/C) (Homo sapiens, UniProt Q8TF76).
T1 sequence (Q8TF76 1-798): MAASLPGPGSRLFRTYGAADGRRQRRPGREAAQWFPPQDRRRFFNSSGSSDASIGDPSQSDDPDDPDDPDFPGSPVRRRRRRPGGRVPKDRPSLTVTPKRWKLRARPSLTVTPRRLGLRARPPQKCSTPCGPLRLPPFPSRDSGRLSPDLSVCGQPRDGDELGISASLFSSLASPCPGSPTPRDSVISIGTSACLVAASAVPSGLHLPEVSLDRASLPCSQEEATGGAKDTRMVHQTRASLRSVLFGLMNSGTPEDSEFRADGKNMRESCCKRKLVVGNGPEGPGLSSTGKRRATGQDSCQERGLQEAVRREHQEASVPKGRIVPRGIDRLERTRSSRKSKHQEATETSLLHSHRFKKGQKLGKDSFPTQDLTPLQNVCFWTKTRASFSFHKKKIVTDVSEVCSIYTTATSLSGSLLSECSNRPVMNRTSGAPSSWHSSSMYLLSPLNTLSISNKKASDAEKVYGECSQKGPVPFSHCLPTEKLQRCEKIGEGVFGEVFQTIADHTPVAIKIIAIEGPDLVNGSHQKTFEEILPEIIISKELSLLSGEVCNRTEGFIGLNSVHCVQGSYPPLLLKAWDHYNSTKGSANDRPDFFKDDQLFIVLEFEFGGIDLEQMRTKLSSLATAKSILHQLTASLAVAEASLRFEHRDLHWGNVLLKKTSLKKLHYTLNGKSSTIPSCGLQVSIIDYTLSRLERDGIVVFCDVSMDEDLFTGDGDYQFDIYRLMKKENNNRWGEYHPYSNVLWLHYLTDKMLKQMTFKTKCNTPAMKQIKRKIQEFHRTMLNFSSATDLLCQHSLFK
To be noted: Haspin; for remaining activity at 0.5 µM / remaining activity at 0.1 µM: read-out: % Enzyme Activity (relative to DMSO controls); for remaining activity at 0.1 µM: 100 nM.
Source text: (§1) However, the Aurora A/B selectivity ratios derived from our in vitro and in vivo data can be compared to prioritize inhibitors.

Experiment [2] concerns the target 363 human kinases (including Aurora A/B/C) (Homo sapiens, UniProt P00533). To be noted: EGFR, [ATP] 1 µM; for remaining activity at 0.5 µM / remaining activity at 0.1 µM: read-out: % Enzyme Activity (relative to DMSO controls); for remaining activity at 0.1 µM: 100 nM.
Source text: as §1
Experiment [3] deals with T2, 363 human kinases (including Aurora A/B/C) (Homo sapiens, UniProt Q8N752).
T2 sequence (Q8N752 1-337): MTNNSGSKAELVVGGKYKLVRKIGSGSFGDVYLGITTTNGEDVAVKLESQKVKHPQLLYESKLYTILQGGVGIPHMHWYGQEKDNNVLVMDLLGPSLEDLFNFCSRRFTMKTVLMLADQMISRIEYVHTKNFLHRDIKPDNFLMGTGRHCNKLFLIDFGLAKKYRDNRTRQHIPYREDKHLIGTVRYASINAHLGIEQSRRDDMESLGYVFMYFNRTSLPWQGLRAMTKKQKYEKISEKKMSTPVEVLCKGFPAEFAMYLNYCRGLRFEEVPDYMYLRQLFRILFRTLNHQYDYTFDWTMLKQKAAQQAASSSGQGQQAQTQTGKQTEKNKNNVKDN
To be noted: CK1a1L, [ATP] 30 µM; for remaining activity at 0.5 µM / remaining activity at 0.1 µM: read-out: % Enzyme Activity (relative to DMSO controls); for remaining activity at 0.1 µM: 100 nM.
Source text: as §1

Experiment [4] addresses 363 human kinases (including Aurora A/B/C) (Homo sapiens, UniProt Q9UM73). To be noted: ALK, [ATP] 50 µM; for remaining activity at 0.5 µM / remaining activity at 0.1 µM: read-out: % Enzyme Activity (relative to DMSO controls); for remaining activity at 0.1 µM: 100 nM.
Source text: as §1
The target in experiment [5] is 363 human kinases (including Aurora A/B/C) (Homo sapiens, UniProt P53350). To be noted: PLK1; for remaining activity at 0.5 µM / remaining activity at 0.1 µM: read-out: % Enzyme Activity (relative to DMSO controls); for remaining activity at 0.1 µM: 100 nM.
Source text: as §1
Experiment [6] deals with 363 human kinases (including Aurora A/B/C) (Homo sapiens, UniProt Q15759). To be noted: P38b/MAPK11; for remaining activity at 0.5 µM / remaining activity at 0.1 µM: read-out: % Enzyme Activity (relative to DMSO controls); for remaining activity at 0.1 µM: 100 nM.
Source text: as §1
The target of experiment [7] is 363 human kinases (including Aurora A/B/C) (Homo sapiens, UniProt Q96RR4). To be noted: CAMKK2, [ATP] 30 µM; for remaining activity at 0.5 µM / remaining activity at 0.1 µM: read-out: % Enzyme Activity (relative to DMSO controls); for remaining activity at 0.1 µM: 100 nM.
Source text: as §1
The target of experiment [8] is 363 human kinases (including Aurora A/B/C) (Homo sapiens, UniProt Q9HCP0). To be noted: CK1g1, [ATP] 20 µM; for remaining activity at 0.5 µM / remaining activity at 0.1 µM: read-out: % Enzyme Activity (relative to DMSO controls); for remaining activity at 0.1 µM: 100 nM.
Source text: as §1
In experiment [9] the target is 363 human kinases (including Aurora A/B/C) (Homo sapiens, UniProt P37173). To be noted: TGFBR2; for remaining activity at 0.5 µM / remaining activity at 0.1 µM: read-out: % Enzyme Activity (relative to DMSO controls); for remaining activity at 0.1 µM: 100 nM.
Source text: as §1
For experiment [10], the target named is T3, 363 human kinases (including Aurora A/B/C) (Homo sapiens, UniProt O15111).
T3 sequence (O15111 1-745): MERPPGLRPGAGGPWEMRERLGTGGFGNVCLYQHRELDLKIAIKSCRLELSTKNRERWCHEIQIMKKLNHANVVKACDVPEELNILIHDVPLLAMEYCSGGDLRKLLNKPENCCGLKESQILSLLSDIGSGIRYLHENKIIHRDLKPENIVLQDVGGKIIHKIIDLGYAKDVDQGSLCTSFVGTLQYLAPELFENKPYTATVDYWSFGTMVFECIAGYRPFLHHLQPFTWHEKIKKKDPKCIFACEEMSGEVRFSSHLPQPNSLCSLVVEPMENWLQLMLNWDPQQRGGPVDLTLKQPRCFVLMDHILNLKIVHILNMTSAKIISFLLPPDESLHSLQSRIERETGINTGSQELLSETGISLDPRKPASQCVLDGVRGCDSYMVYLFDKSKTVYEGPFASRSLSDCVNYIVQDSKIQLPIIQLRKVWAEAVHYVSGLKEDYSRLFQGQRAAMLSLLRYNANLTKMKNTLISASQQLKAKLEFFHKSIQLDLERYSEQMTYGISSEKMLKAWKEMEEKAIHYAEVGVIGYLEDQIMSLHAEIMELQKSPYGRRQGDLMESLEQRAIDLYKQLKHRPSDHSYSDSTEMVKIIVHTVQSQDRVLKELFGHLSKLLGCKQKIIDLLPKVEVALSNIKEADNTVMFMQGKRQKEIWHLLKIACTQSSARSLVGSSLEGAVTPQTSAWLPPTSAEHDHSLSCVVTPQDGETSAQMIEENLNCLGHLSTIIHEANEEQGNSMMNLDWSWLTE
To be noted: IKKa/CHUK; for remaining activity at 0.5 µM / remaining activity at 0.1 µM: read-out: % Enzyme Activity (relative to DMSO controls); for remaining activity at 0.1 µM: 100 nM.
Source text: as §1

Experiment [11] concerns the target 363 human kinases (including Aurora A/B/C) (Homo sapiens, UniProt Q9H0K1). To be noted: SIK2; for remaining activity at 0.5 µM / remaining activity at 0.1 µM: read-out: % Enzyme Activity (relative to DMSO controls); for remaining activity at 0.1 µM: 100 nM.
Source text: as §1

Chain of 363 human kinases (including Aurora A/B/C) (Homo sapiens, UniProt P00533) (P00533 25-1210): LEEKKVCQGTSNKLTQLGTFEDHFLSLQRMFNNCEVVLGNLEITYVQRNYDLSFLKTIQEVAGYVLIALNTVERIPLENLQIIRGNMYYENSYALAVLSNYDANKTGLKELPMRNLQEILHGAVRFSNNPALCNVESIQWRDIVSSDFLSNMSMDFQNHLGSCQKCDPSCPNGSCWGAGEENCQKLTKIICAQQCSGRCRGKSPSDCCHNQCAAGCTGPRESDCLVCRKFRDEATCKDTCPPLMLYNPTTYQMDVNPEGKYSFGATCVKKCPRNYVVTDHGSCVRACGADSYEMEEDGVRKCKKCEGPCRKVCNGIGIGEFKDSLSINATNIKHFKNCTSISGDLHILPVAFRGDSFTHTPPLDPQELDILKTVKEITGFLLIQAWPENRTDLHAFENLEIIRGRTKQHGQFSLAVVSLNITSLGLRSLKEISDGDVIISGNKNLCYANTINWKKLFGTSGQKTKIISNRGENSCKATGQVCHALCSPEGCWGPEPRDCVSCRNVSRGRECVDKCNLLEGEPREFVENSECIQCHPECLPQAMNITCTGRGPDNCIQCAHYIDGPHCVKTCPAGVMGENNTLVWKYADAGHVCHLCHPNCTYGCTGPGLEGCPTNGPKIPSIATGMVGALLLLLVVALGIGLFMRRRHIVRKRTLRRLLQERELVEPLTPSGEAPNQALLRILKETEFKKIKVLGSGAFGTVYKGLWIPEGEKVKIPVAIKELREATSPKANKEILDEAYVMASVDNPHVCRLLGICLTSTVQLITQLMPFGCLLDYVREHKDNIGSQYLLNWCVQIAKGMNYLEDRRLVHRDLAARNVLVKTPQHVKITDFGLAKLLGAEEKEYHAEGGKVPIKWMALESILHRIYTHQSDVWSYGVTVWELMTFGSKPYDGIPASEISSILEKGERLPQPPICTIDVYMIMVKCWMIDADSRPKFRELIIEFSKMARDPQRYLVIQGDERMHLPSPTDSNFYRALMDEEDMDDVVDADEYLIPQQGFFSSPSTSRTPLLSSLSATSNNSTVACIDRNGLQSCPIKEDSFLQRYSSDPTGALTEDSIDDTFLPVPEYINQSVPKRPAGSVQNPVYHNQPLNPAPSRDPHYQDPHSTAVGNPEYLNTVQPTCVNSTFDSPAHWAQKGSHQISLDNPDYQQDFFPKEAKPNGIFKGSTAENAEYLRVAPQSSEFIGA
Chain of 363 human kinases (including Aurora A/B/C) (Homo sapiens, UniProt Q15759) (Q15759 whole entry): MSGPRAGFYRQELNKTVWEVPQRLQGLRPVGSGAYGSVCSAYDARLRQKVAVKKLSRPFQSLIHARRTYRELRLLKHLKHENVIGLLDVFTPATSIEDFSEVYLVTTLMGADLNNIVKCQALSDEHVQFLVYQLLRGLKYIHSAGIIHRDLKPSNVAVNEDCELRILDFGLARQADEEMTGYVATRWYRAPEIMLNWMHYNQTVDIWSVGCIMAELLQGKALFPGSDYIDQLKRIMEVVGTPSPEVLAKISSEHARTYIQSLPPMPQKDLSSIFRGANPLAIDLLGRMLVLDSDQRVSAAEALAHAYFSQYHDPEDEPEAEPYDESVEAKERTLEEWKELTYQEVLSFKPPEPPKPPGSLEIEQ
Chain of 363 human kinases (including Aurora A/B/C) (Homo sapiens, UniProt Q9H0K1) (Q9H0K1 whole entry): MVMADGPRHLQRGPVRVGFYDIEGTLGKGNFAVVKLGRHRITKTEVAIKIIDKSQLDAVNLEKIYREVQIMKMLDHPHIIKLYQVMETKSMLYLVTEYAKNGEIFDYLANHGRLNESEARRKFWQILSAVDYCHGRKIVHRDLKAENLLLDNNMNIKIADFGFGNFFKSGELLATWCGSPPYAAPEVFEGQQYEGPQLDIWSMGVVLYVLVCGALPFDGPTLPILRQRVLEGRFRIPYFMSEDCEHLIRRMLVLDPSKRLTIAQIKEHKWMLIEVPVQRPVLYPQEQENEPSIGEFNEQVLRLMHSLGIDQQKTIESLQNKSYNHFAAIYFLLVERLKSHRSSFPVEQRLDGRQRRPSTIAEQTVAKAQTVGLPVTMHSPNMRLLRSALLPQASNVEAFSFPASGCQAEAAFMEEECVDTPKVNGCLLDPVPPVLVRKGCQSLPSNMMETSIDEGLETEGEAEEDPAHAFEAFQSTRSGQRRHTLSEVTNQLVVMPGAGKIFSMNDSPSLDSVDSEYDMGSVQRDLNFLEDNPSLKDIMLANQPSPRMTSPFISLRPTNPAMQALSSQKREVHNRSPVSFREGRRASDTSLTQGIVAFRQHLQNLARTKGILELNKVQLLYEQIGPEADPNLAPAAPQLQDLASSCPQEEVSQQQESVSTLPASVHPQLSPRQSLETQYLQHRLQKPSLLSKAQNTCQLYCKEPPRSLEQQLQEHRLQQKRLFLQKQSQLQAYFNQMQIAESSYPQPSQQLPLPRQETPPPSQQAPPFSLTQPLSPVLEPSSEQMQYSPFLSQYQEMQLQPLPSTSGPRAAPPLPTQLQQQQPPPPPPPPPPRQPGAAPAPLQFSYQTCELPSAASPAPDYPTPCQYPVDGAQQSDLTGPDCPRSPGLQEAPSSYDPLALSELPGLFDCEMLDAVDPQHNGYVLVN
Chain of 363 human kinases (including Aurora A/B/C) (Homo sapiens, UniProt P37173) (P37173 23-567): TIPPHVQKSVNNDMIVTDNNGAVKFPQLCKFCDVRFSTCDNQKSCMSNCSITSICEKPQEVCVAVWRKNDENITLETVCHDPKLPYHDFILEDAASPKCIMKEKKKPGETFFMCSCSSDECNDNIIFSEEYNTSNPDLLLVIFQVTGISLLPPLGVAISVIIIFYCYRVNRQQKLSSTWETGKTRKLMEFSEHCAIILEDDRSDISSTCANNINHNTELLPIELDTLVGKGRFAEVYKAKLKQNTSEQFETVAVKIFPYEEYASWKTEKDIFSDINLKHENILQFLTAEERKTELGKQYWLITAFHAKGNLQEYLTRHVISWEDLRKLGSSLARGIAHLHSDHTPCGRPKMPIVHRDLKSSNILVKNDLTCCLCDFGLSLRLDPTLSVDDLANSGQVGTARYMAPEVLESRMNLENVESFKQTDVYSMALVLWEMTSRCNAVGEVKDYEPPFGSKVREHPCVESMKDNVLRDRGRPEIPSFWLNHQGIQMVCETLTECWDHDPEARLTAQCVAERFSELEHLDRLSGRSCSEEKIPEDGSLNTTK
Chain of 363 human kinases (including Aurora A/B/C) (Homo sapiens, UniProt Q96RR4) (Q96RR4 whole entry): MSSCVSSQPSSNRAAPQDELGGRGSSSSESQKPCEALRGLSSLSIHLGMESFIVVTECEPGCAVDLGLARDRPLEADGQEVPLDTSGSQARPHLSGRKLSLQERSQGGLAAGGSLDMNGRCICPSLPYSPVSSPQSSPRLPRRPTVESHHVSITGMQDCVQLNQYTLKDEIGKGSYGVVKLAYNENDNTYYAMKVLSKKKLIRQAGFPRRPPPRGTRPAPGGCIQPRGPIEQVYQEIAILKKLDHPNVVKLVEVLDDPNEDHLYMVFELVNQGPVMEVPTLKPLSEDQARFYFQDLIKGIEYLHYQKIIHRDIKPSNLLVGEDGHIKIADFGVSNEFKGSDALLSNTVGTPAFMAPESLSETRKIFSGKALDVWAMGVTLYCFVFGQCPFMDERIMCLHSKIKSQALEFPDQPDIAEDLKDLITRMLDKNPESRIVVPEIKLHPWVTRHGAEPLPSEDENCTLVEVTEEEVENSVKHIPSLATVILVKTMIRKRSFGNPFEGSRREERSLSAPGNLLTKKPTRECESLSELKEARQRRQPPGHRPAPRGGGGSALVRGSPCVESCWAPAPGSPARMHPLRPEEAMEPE
Chain of 363 human kinases (including Aurora A/B/C) (Homo sapiens, UniProt Q9HCP0) (Q9HCP0 whole entry): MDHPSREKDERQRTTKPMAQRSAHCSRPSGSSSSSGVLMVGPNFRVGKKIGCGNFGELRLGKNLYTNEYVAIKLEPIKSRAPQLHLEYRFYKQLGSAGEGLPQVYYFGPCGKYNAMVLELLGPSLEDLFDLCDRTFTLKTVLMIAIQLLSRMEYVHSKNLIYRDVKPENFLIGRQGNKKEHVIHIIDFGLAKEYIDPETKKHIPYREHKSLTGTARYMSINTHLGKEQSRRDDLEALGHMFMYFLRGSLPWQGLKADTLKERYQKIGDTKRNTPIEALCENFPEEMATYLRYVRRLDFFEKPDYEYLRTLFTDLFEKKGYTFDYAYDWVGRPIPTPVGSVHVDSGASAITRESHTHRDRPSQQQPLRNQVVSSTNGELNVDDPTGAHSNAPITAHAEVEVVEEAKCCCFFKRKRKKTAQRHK
Chain of 363 human kinases (including Aurora A/B/C) (Homo sapiens, UniProt P53350) (P53350 whole entry): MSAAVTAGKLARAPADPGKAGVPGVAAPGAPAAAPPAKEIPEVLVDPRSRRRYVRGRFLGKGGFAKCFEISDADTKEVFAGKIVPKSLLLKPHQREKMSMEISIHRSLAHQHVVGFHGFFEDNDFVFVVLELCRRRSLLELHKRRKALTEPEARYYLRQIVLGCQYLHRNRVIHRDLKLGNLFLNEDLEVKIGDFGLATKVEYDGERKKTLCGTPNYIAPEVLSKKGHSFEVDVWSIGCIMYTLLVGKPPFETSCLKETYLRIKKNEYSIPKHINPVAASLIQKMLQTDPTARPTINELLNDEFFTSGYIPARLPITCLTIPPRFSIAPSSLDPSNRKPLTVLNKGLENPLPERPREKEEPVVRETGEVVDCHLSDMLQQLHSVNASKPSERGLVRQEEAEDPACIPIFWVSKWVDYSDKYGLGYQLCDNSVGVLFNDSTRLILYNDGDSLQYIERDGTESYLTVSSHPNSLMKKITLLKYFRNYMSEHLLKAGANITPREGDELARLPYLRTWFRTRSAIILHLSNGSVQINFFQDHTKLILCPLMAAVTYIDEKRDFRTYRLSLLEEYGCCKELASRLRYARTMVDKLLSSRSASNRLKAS

As to `O=C(c1cccc(Cl)c1F)N1CCN(Cc2cccc(Nc3nccs3)n2)CC1` [MK-8745], the “% Enzyme Activity (relative to DMSO controls)” value in [1] (500 nM) was determined as 100.89%; in experiment [2] (500 nM), 97.09%; in experiment [3] (500 nM), 102.40%; in experiment [4] (500 nM), 78.97%; in [5] (500 nM), 94.27%; in experiment [6] (500 nM) it was 92.96%. In addition, the “% Enzyme Activity (relative to DMSO controls)” value is 199.08% in experiment [7] (500 nM); 98.16% in experiment [8] (500 nM); 108.29% in experiment [9] (500 nM); 107.82% in experiment [10] (500 nM); 96.62% in experiment [11] (500 nM). In addition, the remaining activity at 0.5 µM turned out to be 102% in experiment [1] (500 nM); 99.1% in [2] (500 nM); 103% in experiment [3] (500 nM); 81% in experiment [4] (500 nM); 95.1% in experiment [5] (500 nM); 93.2% in experiment [6] (500 nM). For the same molecule, the remaining activity at 0.5 µM in experiment [7] (500 nM) was 204%; in [8] (500 nM) it was 98.7%; in experiment [9] (500 nM), 109%; in experiment [10] (500 nM) it was 114%; in experiment [11] (500 nM) it was 98.7%.
Regarding `CCn1cc(-c2ccnc3[nH]c(-c4cccc(CN(C)C)c4)cc23)c(-c2ccc(NC(=O)N(C)C)cc2)n1` [GSK1070916], the remaining activity at 0.1 µM is 86.9% in [1]; 54.6% in experiment [2]; 108% in experiment [3]; 98.4% in [4]; 96.5% in experiment [5]; 94.3% in [6]. The remaining activity at 0.1 µM in experiment [7] turned out to be 76.9%; in experiment [8], 104%; in experiment [9] it was 121%; in experiment [10], 126%; in experiment [11], 40%.
Consider `O=C(O)[C@]1(Cc2cccc(Nc3nccs3)n2)CC[C@@H](Oc2cccc(Cl)c2F)CC1` [MK-5108], for which the remaining activity at 0.1 µM in [1] amounted to 101%; in experiment [2], 67.3%; in experiment [3] it was 108%; in [4], 67%; in experiment [5], 101%; in experiment [6], 102%. The remaining activity at 0.1 µM in experiment [7] was determined as 111%; in experiment [8], 93.2%; in experiment [9], 92.6%; in experiment [10], 118%; in [11], 96.5%. Besides, the remaining activity at 0.5 µM in [1] (500 nM) was determined as 74%; in experiment [2] (500 nM), 33.9%; in experiment [3] (500 nM), 115%; in experiment [4] (500 nM), 30.9%; in experiment [5] (500 nM), 100%; in experiment [6] (500 nM) it was 96%. The remaining activity at 0.5 µM was found to be 87.7% in [7] (500 nM); 101% in experiment [8] (500 nM); 86.3% in experiment [9] (500 nM); 113% in experiment [10] (500 nM); 93.3% in experiment [11] (500 nM).
